Source: patent US12312370B2, “Immunoproteasome inhibitors” (Principia Biopharma Inc., priority 2017, dated 2025)
pIC50: −log10 of the molar value. Where two headings read alike, the source gives them in different places.

Legend:
[1] = target: immunoproteasome LMP7/B5i subunit (Homo sapiens, UniProt P28062); experiment: Caliper-based proteasome enzymatic activity assay, LMP7; assay type: biochemical
[2] = target: constitutive proteasome β5c unit (Homo sapiens, UniProt P28074); experiment: Caliper-based proteasome enzymatic activity assay, β5c; assay type: biochemical; details: human recombinant constitutive proteasome 0.3 nM, FAM-labeled peptide substrate 1 μM, rt 3 h; read-out: β5c subunit IC50
[3] = human recombinant immunoproteasome 0.3 nM, FAM-labeled peptide substrate 1 μM, rt 3 h, read-out: LMP7 subunit IC50

Compound	pIC50 [1, 3]	pIC50 [2]	pIC50 [1]
CC(C)(C=C(C#N)C(=O)N1C[C@H](OC(=O)N[C@@H](Cc2ccccc2)B(O)O)[C@@H](F)C1)N1CCC(F)(F)C1 [Example 109, ((R)-1-(((((3S,4S)-1-(2-cyano-4-(3,3-difluoropyrrolidin-1-yl)-4-methylpent-2-enoyl)-4-fluoropyrrolidin-3-yl)oxy)carbonyl)amino)-2-phenylethyl)boronic acid]	8.46	6.21	
C=C(F)C(=O)N1CCC[C@H](OC(=O)N[C@@H](Cc2ccc(F)cc2)B(O)O)C1 [Example 74, ((R)-1-(((((S)-1-(2-fluoroacryloyl)piperidin-3-yl)oxy)carbonyl)amino)-2-(4-fluorophenyl)ethyl)boronic acid]	6.83	5.68	
CC1(C)CN(C(C)(C)C=C(C#N)C(=O)N2CCCC[C@@H](OC(=O)N[C@@H](Cc3ccccc3)B(O)O)C2)CCO1 [Example 136, ((R)-1-(((((R)-1-(2-cyano-4-(2,2-dimethylmorpholino)-4-methylpent-2-enoyl)azepan-3-yl)oxy)carbonyl)amino)-2-phenylethyl)boronic acid]	8.89	5.89	
CC(C)C=C(C#N)C(=O)NCCCC[C@H](NC(=O)c1cccc(O)n1)C(=O)N[C@@H](CC(C)C)B(O)O [Example 7, ((R)-1-((S)-6-(2-cyano-4-methylpent-2-enamido)-2-(6-hydroxypicolinamido)hexanamido)-3-methylbutyl)boronic acid]	8.89	9.00	
C=CC(=O)N1CC[C@@H]1COC(=O)N[C@@H](Cc1coc2ccccc12)B(O)O [Example 62, ((R)-1-(((((R)-1-acryloylazetidin-2-yl)methoxy)carbonyl)amino)-2-(benzofuran-3-yl)ethyl)boronic acid]	8.64	6.90	
C=CC(=O)N1C2CCC1(COC(=O)N[C@@H](Cc1ccc(F)cc1)B(O)O)CC2 [Example 76, (R)-(1-((((7-acryloyl-7-azabicyclo[2.2.1]heptan-1-yl)methoxy)carbonyl)amino)-2-(4-fluorophenyl)ethyl)boronic acid]	7.68	5.39	
C=CC(=O)N1CCCC(C)(OC(=O)N[C@@H](Cc2ccccc2)B(O)O)C1 (single isomer, unassigned) [Example 85]	< 5.30	< 5.30	
CC(C)(C=C(C#N)C(=O)N1C[C@H](F)[C@H](OC(=O)N[C@@H](Cc2ccccc2)B(O)O)C1)N1CCC(F)(F)C1 [Example 111, ((R)-1-(((((3R,4S)-1-(2-cyano-4-(3,3-difluoropyrrolidin-1-yl)-4-methylpent-2-enoyl)-4-fluoropyrrolidin-3-yl)oxy)carbonyl)amino)-2-phenylethyl)boronic acid]	8.72	6.85	
CC(C)C=C(C#N)C(=O)NCCCC[C@H](NC(=O)[C@H](C)NC(=O)C(C)C)C(=O)N[C@@H](Cc1ccccc1)B(O)O [Example 4, ((R)-1-((S)-6-(2-cyano-4-methylpent-2-enamido)-2-((S)-2-isobutyramidopropanamido)hexanamido)-2-phenylethyl)boronic acid]	7.85	7.63	
COC(=O)N1CCN(C(C)(C)C=C(C#N)C(=O)N2CCCC[C@H](OC(=O)N[C@@H](Cc3ccccc3)B(O)O)C2)CC1 [Example 108, ((R)-1-(((((S)-1-(2-cyano-4-(4-(methoxycarbonyl)piperazin-1-yl)-4-methylpent-2-enoyl)azepan-3-yl)oxy)carbonyl)amino)-2-phenylethyl)boronic acid]	8.92	5.52	
C[C@H]1CN(C(C)(C)C=C(C#N)C(=O)N2C3CCC2(COC(=O)N[C@@H](Cc2ccccc2)B(O)O)CC3)CCO1 [Example 122, ((R)-1-((((7-(2-cyano-4-methyl-4-((S)-2-methylmorpholino)pent-2-enoyl)-7-azabicyclo[2.2.1]heptan-1-yl)methoxy)carbonyl)amino)-2-phenylethyl)boronic acid]	8.70	5.93	
C=C(F)C(=O)N1C2CCC1(COC(=O)N[C@@H](Cc1ccc(F)cc1)B(O)O)CC2 [Example 75, (R)-(1-((((7-(2-fluoroacryloyl)-7-azabicyclo[2.2.1]heptan-1-yl)methoxy)carbonyl)amino)-2-(4-fluorophenyl)ethyl)boronic acid]	6.89	< 5.30	
CC(C)(C=C(C#N)C(=O)N1CCC[C@@](C)(OC(=O)N[C@@H](Cc2ccccc2)B(O)O)C1)N1CCC(F)(F)C1 (single isomer, unassigned) [Example 93]	6.19	< 5.30	
CC(C)(C=C(C#N)C(=O)N1CCC[C@H](CC(=O)N[C@@H](Cc2ccccc2)B(O)O)C1)N1CCC(F)(F)C1 [Example 56, ((R)-1-(2-((R)-1-(2-cyano-4-(3,3-difluoropyrrolidin-1-yl)-4-methylpent-2-enoyl)piperidin-3-yl)acetamido)-2-phenylethyl)boronic acid]	8.00	6.59	
CCc1cccc(C[C@H](NC(=O)[C@H](COC[C@H]2CCCN2C(=O)C(C#N)=CC(C)C)NCC(F)(F)F)B(O)O)c1 [Example 30, ((R)-1-((S)-3-(((R)-1-(2-cyano-4-methylpent-2-enoyl)pyrrolidin-2-yl)methoxy)-2-((2,2,2-trifluoroethyl)amino)propanamido)-2-(3-ethylphenyl)ethyl)boronic acid]	7.06	5.74	
CC(C)(C=C(C#N)C(=O)N1CCC[C@@H](CC(=O)N[C@@H](Cc2ccccc2)B(O)O)C1)N1CCC(F)(F)C1 [Example 59, ((R)-1-(2-((S)-1-(2-cyano-4-(3,3-difluoropyrrolidin-1-yl)-4-methylpent-2-enoyl)piperidin-3-yl)acetamido)-2-phenylethyl)boronic acid]	7.68	6.79	
CC(C)(C=C(C#N)C(=O)N1C2CCC1(COC(=O)N[C@@H](Cc1ccc(F)cc1)B(O)O)CC2)N1CCC(F)(F)C1 [Example 84, (R)-(1-((((7-(2-cyano-4-(3,3-difluoropyrrolidin-1-yl)-4-methylpent-2-enoyl)-7-azabicyclo[2.2.1]heptan-1-yl)methoxy)carbonyl)amino)-2-(4-fluorophenyl)ethyl)boronic acid]	9.15	6.55	
Cc1ccncc1C(=O)N[C@@H](CCCCNC(=O)C(C#N)=CC(C)C)C(=O)N[C@@H](Cc1ccccc1)B(O)O [Example 17, ((R)-1-((S)-6-(2-cyano-4-methylpent-2-enamido)-2-(4-methylnicotinamido)hexanamido)-2-phenylethyl)boronic acid]	8.19	7.96	
CC(C)(C)C=C(C#N)C(=O)N1CCC[C@@H]1COC[C@H](NCC(F)(F)F)C(=O)N[C@@H](Cc1ccccc1)B(O)O [Example 24, (R)-1-((S)-3-(((R)-1-(2-cyano-4,4-dimethylpent-2-enoyl)pyrrolidin-2-yl)methoxy)-2-(2,2,2-trifluoroethylamino)propanamido)-2-phenylethylboronic acid]	7.59	6.78	
CC1(C)CCN(C(C)(C)C=C(C#N)C(=O)N2CCC[C@H](OC(=O)N[C@@H](Cc3ccc(C(F)(F)F)cc3)B(O)O)C2)C1 [Example 69, ((R)-1-(((((S)-1-(2-cyano-4-(3,3-dimethylpyrrolidin-1-yl)-4-methylpent-2-enoyl)piperidin-3-yl)oxy)carbonyl)amino)-2-(4-(trifluoromethyl)phenyl)ethyl)boronic acid]	7.58	5.47	
CC(C)(C=C(C#N)C(=O)N1CCC[C@H](NC(=O)N[C@@H](Cc2ccccc2)B(O)O)C1)N1CCC(F)(F)C1 [Example 112, ((R)-1-(3-((S)-1-(2-cyano-4-(3,3-difluoropyrrolidin-1-yl)-4-methylpent-2-enoyl)piperidin-3-yl)ureido)-2-phenylethyl)boronic acid]	6.84	5.65	
CC(C)(C=C(C#N)C(=O)N1CCC[C@H](OC(=O)N[C@@H](Cc2ccccc2)B(O)O)C1)N1CCN2C(=O)OC[C@H]2C1 [Example 98, ((R)-1-(((((S)-1-(2-cyano-4-methyl-4-((R)-3-oxotetrahydro-3H-oxazolo[3,4-a]pyrazin-2(1H)-yl)pent-2-enoyl)piperidin-3-yl)oxy)carbonyl)amino)-2-phenylethyl)boronic acid]	8.25	5.60	
CC(C)(C=C(C#N)C(=O)N1CC[C@H](NC(=O)N[C@@H](Cc2ccccc2)B(O)O)C1)N1CCC(F)(F)C1 [Example 100, ((R)-1-(3-((S)-1-(2-cyano-4-(3,3-difluoropyrrolidin-1-yl)-4-methylpent-2-enoyl)pyrrolidin-3-yl)ureido)-2-phenylethyl)boronic acid]	6.69	5.45	
C=CC(=O)N1CCC[C@H](OC(=O)N[C@@H](Cc2ccc(F)cc2)B(O)O)C1 [Example 70, ((R)-1-(((((S)-1-acryloylpiperidin-3-yl)oxy)carbonyl)amino)-2-(4-fluorophenyl)ethyl)boronic acid]		< 5.30	6.97
CC(C)(C=C(C#N)C(=O)N1CCC[C@H](OC(=O)N[C@@H](Cc2ccccc2)B(O)O)C1)N1CCN2C(=O)OC[C@@H]2C1 [Example 97, ((R)-1-(((((S)-1-(2-cyano-4-methyl-4-((S)-3-oxotetrahydro-3H-oxazolo[3,4-a]pyrazin-7(1H)-yl)pent-2-enoyl)piperidin-3-yl)oxy)carbonyl)amino)-2-phenylethyl)boronic acid]	8.11	5.71	
C[C@@H]1CN(C(C)(C)C=C(C#N)C(=O)N2C3CCC2(COC(=O)N[C@@H](Cc2ccccc2)B(O)O)CC3)CCO1 [Example 118, ((R)-1-((((7-(2-cyano-4-methyl-4-((R)-2-methylmorpholino)pent-2-enoyl)-7-azabicyclo[2.2.1]heptan-1-yl)methoxy)carbonyl)amino)-2-phenylethyl)boronic acid]	8.72	5.94	
